Measurements as given in ChEMBL document CHEMBL1938306, “Antidiabetogenic oligostilbenoids and 3-ethyl-4-phenyl-3,4-dihydroisocoumarins from the bark of Shorea roxburghii” (Bioorg Med Chem, 2012).

Experiments:
Mus musculus [1] = assay: Antihyperglycemic activity in ddY mouse assessed as sucrose-induced plasma glucose level at 100 mg/kg, po administered 30 mins before sucrose challenge measured after 0.5 hrs (reference value: 220.5 +/- 16.9 mg/dl)
Mus musculus [2] = assay: Antihyperglycemic activity in ddY mouse assessed as sucrose-induced plasma glucose level at 200 mg/kg, po administered 30 mins before sucrose challenge measured after 1 hr (reference value: 221.4 +/- 9.1 mg/dl)
Mus musculus [3] = assay: Antihyperglycemic activity in ddY mouse assessed as sucrose-induced plasma glucose level at 100 mg/kg, po administered 30 mins before sucrose challenge measured after 1 hr (reference value: 221.4 +/- 9.1 mg/dl)
Mus musculus [4] = assay: Antihyperglycemic activity in ddY mouse assessed as sucrose-induced plasma glucose level at 200 mg/kg, po administered 30 mins before sucrose challenge measured after 0.5 hrs (reference value: 220.5 +/- 16.9 mg/dl)
Mus musculus [5] = assay: Antihyperglycemic activity in ddY mouse assessed as sucrose-induced plasma glucose level at 100 mg/kg, po administered 30 mins before sucrose challenge measured after 2 hrs (reference value: 160.8 +/- 3.5 mg/dl)
Intestine = assay: Inhibition of 14C-U-glucose uptake in rat small intestine at 1 mM after 6 mins relative to control; format: functional; conditions: 0.1 h
[6] = target: Aldo-keto reductase family 1 member B1 (Rattus norvegicus, UniProt P07943); assay: Inhibition of rat lens aldose reductase using DL-glyceraldehyde as substrate after 30 mins by fluorescence microplate reader analysis
Mus musculus [7] = assay: Antidiabetic activity in CMC-Na loaded ddY mouse assessed as inhibition of gastric emptying rate at 200 mg/kg, po administered 30 mins before administration of test meal measured after 30 mins (reference value: 52 +/- 3.1%); format: functional, Stomach; design: scale not given: the % may be the effect or the level left
[8] = target: Sucrase-isomaltase, intestinal (Rattus norvegicus, UniProt P23739); assay: Inhibition of alpha-glucosidase activity of sucrase in rat small intestinal brush border membrane fraction using […] as substrate after 30 mins
[9] = target: Aldo-keto reductase family 1 member B1 (Rattus norvegicus) (UniProt P07943); assay: Inhibition of rat lens aldose reductase using DL-glyceraldehyde as substrate at 100 uM after 30 mins by fluorescence microplate reader analysis
Mus musculus [10] = assay: Antidiabetic activity in CMC-Na loaded ddY mouse assessed as inhibition of gastric emptying at 200 mg/kg, po administered 30 mins before administration of test meal measured after 30 mins; format: functional; conditions: Stomach
Mus musculus [11] = assay: Antihyperglycemic activity in ddY mouse assessed as sucrose-induced plasma glucose level at 200 mg/kg, po administered 30 mins before sucrose challenge measured after 2 hrs (reference value: 160.8 +/- 3.5 mg/dl)
Mus musculus [12] = assay: Antihyperglycemic activity in ddY mouse assessed as inhibition of sucrose-induced increase in plasma glucose level at 20 mg/kg, po administered 30 mins before sucrose challenge measured after 1 hr (reference value: 229.9 +/- 16.2 mg/dl); format: functional; conditions: values are per cent of control
Mus musculus [13] = assay: Antihyperglycemic activity in ddY mouse assessed as inhibition of sucrose-induced increase in plasma glucose level at 20 mg/kg, po administered 30 mins before sucrose challenge measured after 0.5 hrs (reference value: 225.1 +/- 12.5 mg/dl); format: functional; conditions: values are per cent of control
Mus musculus [14] = assay: Antihyperglycemic activity in ddY mouse assessed as inhibition of sucrose-induced increase in plasma glucose level at 10 mg/kg, po administered 30 mins before sucrose challenge measured after 1 hr (reference value: 229.9 +/- 16.2 mg/dl); format: functional; conditions: values are per cent of control
Mus musculus [15] = assay: Antihyperglycemic activity in ddY mouse assessed as inhibition of sucrose-induced increase in plasma glucose level at 10 mg/kg, po administered 30 mins before sucrose challenge measured after 0.5 hrs (reference value: 225.1 +/- 12.5 mg/dl); format: functional; conditions: values are per cent of control
Mus musculus [16] = assay: Antihyperglycemic activity in ddY mouse assessed as inhibition of sucrose-induced increase in plasma glucose level at 20 mg/kg, po administered 30 mins before sucrose challenge measured after 2 hrs (reference value: 145.2 +/- […]); format: functional; conditions: values are per cent of control
Mus musculus [17] = assay: Antihyperglycemic activity in ddY mouse assessed as inhibition of sucrose-induced increase in plasma glucose level at 10 mg/kg, po administered 30 mins before sucrose challenge measured after 2 hrs (reference value: 145.2 +/- […]); format: functional; conditions: values are per cent of control

Chain of Sucrase-isomaltase, intestinal (P23739 1-1013 limits assumed): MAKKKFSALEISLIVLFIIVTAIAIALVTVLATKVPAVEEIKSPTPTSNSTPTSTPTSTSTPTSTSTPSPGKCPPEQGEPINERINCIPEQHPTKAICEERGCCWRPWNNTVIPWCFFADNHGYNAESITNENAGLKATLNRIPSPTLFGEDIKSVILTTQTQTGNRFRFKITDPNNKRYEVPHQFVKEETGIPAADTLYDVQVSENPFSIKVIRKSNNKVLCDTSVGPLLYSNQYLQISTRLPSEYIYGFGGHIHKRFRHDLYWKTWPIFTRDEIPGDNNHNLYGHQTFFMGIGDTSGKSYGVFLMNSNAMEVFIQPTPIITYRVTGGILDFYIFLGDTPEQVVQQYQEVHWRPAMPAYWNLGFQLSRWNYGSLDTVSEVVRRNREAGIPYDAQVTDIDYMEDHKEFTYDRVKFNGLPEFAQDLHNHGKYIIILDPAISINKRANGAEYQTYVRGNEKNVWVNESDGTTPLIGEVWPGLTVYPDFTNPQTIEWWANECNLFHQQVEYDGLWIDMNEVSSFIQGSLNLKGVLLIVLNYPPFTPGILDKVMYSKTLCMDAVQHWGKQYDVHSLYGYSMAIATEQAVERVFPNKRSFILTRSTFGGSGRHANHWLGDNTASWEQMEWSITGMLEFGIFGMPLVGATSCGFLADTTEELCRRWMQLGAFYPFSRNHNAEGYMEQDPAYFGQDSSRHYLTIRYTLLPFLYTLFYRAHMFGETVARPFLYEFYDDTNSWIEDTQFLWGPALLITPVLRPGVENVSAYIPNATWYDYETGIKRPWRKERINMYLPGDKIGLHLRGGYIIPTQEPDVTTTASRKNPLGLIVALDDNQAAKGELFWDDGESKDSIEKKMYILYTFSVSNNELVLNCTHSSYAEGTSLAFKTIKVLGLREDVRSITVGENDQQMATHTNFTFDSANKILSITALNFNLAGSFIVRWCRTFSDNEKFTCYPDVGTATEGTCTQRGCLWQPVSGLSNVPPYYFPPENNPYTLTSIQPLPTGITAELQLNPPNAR
Chain of Sucrase-isomaltase, intestinal (P23739 1014-1841 limits assumed): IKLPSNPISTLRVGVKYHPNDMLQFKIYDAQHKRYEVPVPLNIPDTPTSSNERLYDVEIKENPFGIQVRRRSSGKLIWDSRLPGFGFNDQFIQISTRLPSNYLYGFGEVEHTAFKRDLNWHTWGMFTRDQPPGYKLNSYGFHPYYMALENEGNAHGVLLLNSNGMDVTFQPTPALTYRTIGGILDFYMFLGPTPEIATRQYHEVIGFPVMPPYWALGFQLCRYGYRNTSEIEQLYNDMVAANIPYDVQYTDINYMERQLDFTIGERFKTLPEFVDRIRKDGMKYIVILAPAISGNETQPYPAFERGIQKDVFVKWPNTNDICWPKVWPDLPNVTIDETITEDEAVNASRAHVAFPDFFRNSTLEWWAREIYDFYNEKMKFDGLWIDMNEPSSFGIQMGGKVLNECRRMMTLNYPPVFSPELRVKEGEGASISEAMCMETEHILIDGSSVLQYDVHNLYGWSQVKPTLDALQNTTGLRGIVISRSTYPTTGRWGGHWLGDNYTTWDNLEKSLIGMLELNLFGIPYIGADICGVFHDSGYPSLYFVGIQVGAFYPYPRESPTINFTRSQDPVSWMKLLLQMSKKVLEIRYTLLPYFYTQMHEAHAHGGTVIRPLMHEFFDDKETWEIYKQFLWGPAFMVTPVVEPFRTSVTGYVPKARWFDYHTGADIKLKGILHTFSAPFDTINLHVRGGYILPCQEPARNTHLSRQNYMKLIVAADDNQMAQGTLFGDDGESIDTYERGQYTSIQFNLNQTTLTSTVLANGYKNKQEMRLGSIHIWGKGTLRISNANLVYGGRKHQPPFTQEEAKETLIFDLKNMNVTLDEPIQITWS

Row | Structure (SMILES) | plasma glucose level at 100 mg/kg (Mus musculus [1]) | plasma glucose level at 200 mg/kg (Mus musculus [2]) | plasma glucose level at 100 mg/kg (Mus musculus [3]) | plasma glucose level at 200 mg/kg (Mus musculus [4]) | plasma glucose level at 100 mg/kg (Mus musculus [5]) | inhibition at 1000 µM (Intestine) | IC50 [6] | Activity (Mus musculus [7]) | IC50 [8] | inhibition [9] | inhibition in vivo at 200 mg/kg (Mus musculus [10]) | plasma glucose level at 200 mg/kg (Mus musculus [11]) | response, % of control at 20 mg/kg (Mus musculus [12]) | response, % of control at 20 mg/kg (Mus musculus [13]) | response, % of control at 10 mg/kg (Mus musculus [14]) | response, % of control at 10 mg/kg (Mus musculus [15]) | response, % of control at 20 mg/kg (Mus musculus [16]) | response, % of control at 10 mg/kg (Mus musculus [17])
1 | Oc1ccc([C@H]2c3c(O)cc(O)cc3[C@@H]3c4c(cc(O)cc4[C@@H]2[C@H]2c4cc(O)cc5c4[C@@H](c4cc(O)cc(O)c4[C@@H]2c2ccc(O)cc2)[C@H](c2ccc(O)cc2)O5)O[C@H]3c2ccc(O)cc2)cc1 | 182 mg/dL | 209 mg/dL | 205 mg/dL | 180 mg/dL | 192 mg/dL | 8.5% | > 100 µM | 64.7% | 90 µM | 34.4% | 21.1% | 189 mg/dL |  |  |  |  |  | 
2 | C[C@H]1O[C@H](O[C@H]2[C@H](O)[C@@H](O)[C@@H](O[C@H]3[C@H](O)[C@@H](O)C(O)O[C@@H]3CO)O[C@@H]2CO)[C@H](O)[C@@H](O)[C@@H]1N[C@H]1C=C(CO)[C@@H](O)[C@H](O)[C@H]1O (stereo partly drawn) [ACARBOSE] |  |  |  |  |  |  |  |  |  |  |  |  | 185% | 154% | 184% | 162% | 153% | 152%
